Laboratory results taken from article PMC12314892, “Macrocyclic Phage Display for Identification of Selective Protease Substrates” (Journal of the American Chemical Society, 2025).
*1 amine or outer side, *2 acyl side, *3 side chain or, on linkers, in order; H or OH if unused. Where a SMILES comes first, the peptide text is derived from it. Bridges are numbered along the chain shown (N, C = ends). The star is where a group is joined. X1 = NC(=O)Cc1cc(=O)oc2cc(NC(=O)[C@@H]3CCCN3C(=O)Cn3nc(C[*:1])cc3C[*:2])ccc12; AMC = Cc1cc(=O)oc2cc(N*)ccc12

Tests used:
Recombinant Human FAPα = molecular target: T1, Recombinant Human FAPα (Homo sapiens, UniProt Q12884); assay: Fluorogenic substrate cleavage assay; format: biochemical
T1 construct: purchased R&D Systems 3715-SE-010
T1 sequence (Q12884 1-760): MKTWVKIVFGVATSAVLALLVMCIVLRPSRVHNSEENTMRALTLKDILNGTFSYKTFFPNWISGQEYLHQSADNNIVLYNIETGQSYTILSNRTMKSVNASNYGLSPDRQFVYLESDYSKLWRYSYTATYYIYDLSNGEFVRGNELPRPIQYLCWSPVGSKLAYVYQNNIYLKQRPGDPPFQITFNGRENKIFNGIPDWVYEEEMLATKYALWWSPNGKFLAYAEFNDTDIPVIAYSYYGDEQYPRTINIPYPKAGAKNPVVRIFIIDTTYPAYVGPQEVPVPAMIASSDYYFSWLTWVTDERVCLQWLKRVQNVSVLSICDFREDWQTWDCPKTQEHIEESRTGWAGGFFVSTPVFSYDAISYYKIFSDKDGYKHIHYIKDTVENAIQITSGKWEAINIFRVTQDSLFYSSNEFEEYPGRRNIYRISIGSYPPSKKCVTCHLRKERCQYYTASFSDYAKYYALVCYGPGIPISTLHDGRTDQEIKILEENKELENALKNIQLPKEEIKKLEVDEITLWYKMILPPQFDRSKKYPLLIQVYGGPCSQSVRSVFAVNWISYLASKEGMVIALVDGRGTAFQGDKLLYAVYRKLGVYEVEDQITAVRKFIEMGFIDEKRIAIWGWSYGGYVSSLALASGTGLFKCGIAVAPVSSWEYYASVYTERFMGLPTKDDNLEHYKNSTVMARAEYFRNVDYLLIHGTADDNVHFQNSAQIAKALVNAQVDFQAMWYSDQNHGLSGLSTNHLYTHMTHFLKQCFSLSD
Method: (§1) Fluorogenic Substrate Cleavage Assay
(§2) The following proteases were used for the activity assay: Recombinant Human FAPα Protein, CF (R&D Systems, Catalog No.: 3715-SE-010), Recombinant Human Prolyl Oligopeptidase/PREP Protein, CF (R&D Systems, Catalog No.: 4308-SE-010). Recombinant Human DPP9 Protein, CF (R&D Systems, Catalog No.: 5419-SE-010). Recombinant Human DPP4 Protein (Sino Biological, Catalog No.: 10688-HNCH-10). The buffers used for the activity assay were: FAPα - 50 mM Tris, 1 M NaCl, 1 mg/mL BSA, pH 7.5, PREP- 25 mM Tris, 250 mM NaCl, 2.5 mM DTT, pH 7.5 (DTT was freshly added immediately before use), DPP9- 25 mM Tris, pH 7.5, DPP4- 25 mM Tris, pH
(§3) 7.5. The following commercial substrates were used: zGP-AMC (Bachem,Catalog No.: […]
(§4) conducted in Greiner Bio-One black microplates of 384 wells and polystyrene F-bottom (Catalog No.: 784076). All compounds were dissolved in DMSO at a concentration of 10 mM and then diluted into the respective buffer to the desired final concentration. The protease was added to the specified concentration before the fluorescence measurements. For fluorescence measurements, 2 μL of substrate was further diluted into 6 μL of buffer, followed by addition of 2 μL of enzyme in buffer. For no enzyme controls 2 μL of substrate was diluted into 8 μL of buffer.
(§5) The fluorescence was measured using a Cytation 3 plate reader (BioTek). All experiments have at least three technical replicates. All assays were conducted at 37°C for a minimum of 90 min, unless otherwise noted. Fluorescence measurements were performed at ex/em, 355/460 nm for ACC substrates. The substrates velocity was quantified by calculating the slope of the linear phase of the reaction as relative fluorescence units (RFU) per min. […]

Recombinant Human DPP9 = molecular target: T2, Recombinant Human DPP9 (Homo sapiens, UniProt Q86TI2); assay: Fluorogenic substrate cleavage assay; format: biochemical; details: Supplementary figure 11; 200 μM, 1 hour at 37°C; 2 nM DPP4 vs 6 nM DPP9; RFU/min
T2 construct: purchased R&D Systems 5419-SE-010
Method: as §1, §2, §3, §4, §5

T2 sequence (Q86TI2 whole entry): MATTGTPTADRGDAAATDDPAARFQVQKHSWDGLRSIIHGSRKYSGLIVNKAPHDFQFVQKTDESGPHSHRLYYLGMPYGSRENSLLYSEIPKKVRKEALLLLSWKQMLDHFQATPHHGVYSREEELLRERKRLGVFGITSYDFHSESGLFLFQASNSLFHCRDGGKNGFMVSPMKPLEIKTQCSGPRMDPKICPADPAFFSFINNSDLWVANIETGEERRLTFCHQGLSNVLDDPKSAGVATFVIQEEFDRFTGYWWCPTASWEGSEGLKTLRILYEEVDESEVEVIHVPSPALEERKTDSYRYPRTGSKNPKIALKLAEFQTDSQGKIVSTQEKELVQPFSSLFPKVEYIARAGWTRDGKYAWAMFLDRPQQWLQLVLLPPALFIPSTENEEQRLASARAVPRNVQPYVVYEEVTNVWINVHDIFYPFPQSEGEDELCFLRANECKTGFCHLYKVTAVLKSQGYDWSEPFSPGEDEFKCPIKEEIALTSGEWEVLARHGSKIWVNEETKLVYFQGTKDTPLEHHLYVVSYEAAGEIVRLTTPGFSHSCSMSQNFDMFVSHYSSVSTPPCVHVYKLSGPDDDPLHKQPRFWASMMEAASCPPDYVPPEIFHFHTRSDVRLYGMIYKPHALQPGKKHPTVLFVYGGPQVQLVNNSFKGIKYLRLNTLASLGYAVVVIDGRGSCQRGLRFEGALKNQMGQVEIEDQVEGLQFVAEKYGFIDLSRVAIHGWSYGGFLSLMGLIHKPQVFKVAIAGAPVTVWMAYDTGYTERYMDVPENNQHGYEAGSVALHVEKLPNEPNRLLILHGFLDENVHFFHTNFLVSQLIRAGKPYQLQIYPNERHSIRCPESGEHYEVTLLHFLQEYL

Row | selectivity for DPP4 (vs DPP9) (Recombinant Human DPP9) [fold] | selectivity for DPP4 (vs FAPα) (Recombinant Human FAPα; Supplementary figure 11, 200 μM, 1 hour at 37°C, 2 nM DPP4 vs 10 nM FAPα, RFU/min) [fold] | SMILES | FAPα activity (substrate cleavage, RFU/min), in words (Recombinant Human FAPα; substrate 200 μM, 10 nM FAPα, 37 °C, triplicates)
1 | – | – | CC(C)[C@@H]1NC(=O)[C@@H](N)CSCc2cc(n(CC(=O)N3CCC[C@H]3C(=O)Nc3ccc4c(CC(N)=O)cc(=O)oc4c3)n2)CSC[C@@H](C(=O)NCC(N)=O)NC(=O)[C@H](CC(=O)O)NC(=O)[C@H](C)NC(=O)[C@H](CC(N)=O)NC(=O)[C@H](CCC(N)=O)NC(=O)[C@H](Cc2ccccc2)NC(=O)[C@H](CO)NC1=O [FAP-33.2A6] (H-CVSFQNADCG-NH2; linker 1-9 via X1; N-terminus assumed) | better substrate than the parent FAP-33.2
2 | 11 | 16 | Cc1cc(=O)oc2cc(NC(=O)[C@@H]3CCCN3C(=O)CN)ccc12 [GP-AMC] (H-Gly-Pro-{AMC}) | –
